# Reference: patent US20250228842A1, “USES OF A SOMATOSTATIN MODULATOR FOR THE TREATMENT OF CARCINOID SYNDROME” (Crinetics Pharmaceuticals, Inc., priority 2022, published 2025)
# Key:
# [1] = system: growth hormone (GH) levels; assay: Phase 2 acromegaly trials (ACROBAT Edge / Evolve): GH level; format: in vivo, human
# Method: (§1) An open label exploratory study designed to evaluate the safety, efficacy, and pharmacokinetics of Compound A (also known as paltusotine) in subjects with acromegaly that are treated with somatostatin analogue (SSA) based treatment regimens.
# (§2) Secondary Outcome Measures: 1) Change in IGF-1 levels [Time Frame: From Week 10 to Week 13]. 2) Change in growth hormone (GH) levels [Time Frame: From Week 8 to Week 13]. 3) Change in patient assessed symptoms of acromegaly [Time Frame: From Week 10 to Week 13]. Total score computed by adding each of the individual acromegaly symptom intensities (headache pain, joint pain, sweating, fatigue, weakness in legs, swelling, numbness or tingling).
# (§3) The primary hypothesis was that the group would show no change in the median IGF-1 at Week 13 versus baseline.
# [2] = system: insulin-like growth factor-1 (IGF-1) level; assay: Phase 2 acromegaly trials (ACROBAT Edge / Evolve): IGF-1 level; format: in vivo, human
# Method: as §1
# 10 mg HMG capsule formulation. Multiple capsules were swallowed with water depending on dose specified for a given period/cohort.
# Primary Outcome Measures: Change from baseline (mean of Screening values) in insulin-like growth factor-1 (IGF-1) level [Time Frame: 13 Weeks].
# Primary Outcome Measures: Proportion of subjects who meet responder criteria (based on the mean of two consecutive insulin-like growth factor-1 [IGF-1] measurements ≤upper limit of normal [ULN]) (Time Frame: 13 Weeks).
# as §2, §3
# [3] = Phase 1 multi-cohort single dose study, plasma pharmacokinetics in healthy subjects; format: in vivo, human
# Method: Cohort 1: To characterize performance of 10 mg tablets prepared by spray-dried dispersion (SDD) of Compound A-HCl salt.
# Cohort 2: To evaluate the relative bioavailability of 10 mg SDD tablets compared to the Compound A-HCl hot melt granulation (HMG) formulation, 10 mg capsules. To determine the effect of timing of food administration on pharmacokinetics of low dose of the 10 mg SDD tablets.
# Cohort 5: To determine the effect of the proton-pump inhibitor (PPI), lansoprazole, on the pharmacokinetics of a 60 mg dose of SDD tablets. To determine the effect of a low-fat meal on the pharmacokinetics of a 60 mg dose of SDD tablets.
# The SDD tablets were evaluated. Up to twelve (12) healthy male and female subjects were enrolled in each cohort. Cohort 1 consisted of 4 periods: In Period 1, subjects were administered a proton-pump inhibitor (lansoprazole, 15 mg BID for 3 days (from Day-3), taken orally at least 30 min prior to a meal, once in the morning and once in the evening). On the fourth day (Day 1 of study), fasted subjects will take the last dose of lansoprazole (15 mg) 60 min prior to 20 mg Compound A (2×10 mg of the SDD tablets). In Period 2, fasted subjects were administered 20 mg Compound A (2×10 mg of the SDD tablets). In Period 3, fasted subjects were administered 20 mg Compound A (2×10 mg of the SDD tablets) with a high-fat, high-calorie meal. In Period 4, fasted subjects will take up to 80 mg Compound A (up to 8×10 mg of the SDD tablets). The actual dose was selected based on the pharmacokinetic data from Period 2.
# For Period 1: In the evening before dosing (Day −1), subjects were administered their evening dose of 15 mg lansoprazole, provided an evening meal at least 30 min after administration of lansoprazole, and then were required to fast overnight (≥10 hr) on Day −1. […]
# The cohort consisted of three periods. The PK of 60 mg paltusotine administered as 3×20 mg SDD tablets was assessed using the following criteria: effect of a low-fat meal on the PK of paltusotine (Period 1 and Period 3) and effect of the PPI lansoprazole on the PK of paltusotine (Period 2) as follows: […]
# [4] = Tolerability in studies on subjects with acromegaly; format: in vivo, human; conditions: 40 mg
# carcinoid syndrome = conditions: cited from earlier work
# [5] = after 13 weeks of treatment, acromegaly patients previously treated with injected SRL depots
structure (smiles),measurement,setting,value
"N#Cc1cccc(-c2ccc3ncc(-c4cc(F)cc(F)c4)c(N4CCC(N)CC4)c3c2)c1O [Compound A, 3-(4-(4-amino-piperidin-1-yl)-3-(3,5-difluoro-phenyl)-quinolin-6-yl)-2-hydroxy-benzonitrile]",GH levels vs baseline,[1]; [5],did not significantly change from baseline
same,GH after withdrawal,[1]; after withdrawal,Rise in GH after withdrawal
same,IGF-1 levels vs baseline,[2]; [5],did not significantly change from baseline
same,IGF-1 after withdrawal,[2]; within 2 weeks after withdrawal,Rise in IGF-1 after withdrawal
same,reduction of exposures (Cmax and AUC),"[3]; when administered with PPI, 60 mg",~40%
same,reduction of exposures (Cmax and AUC),[3]; when administered with high-fat meal,> 80%
same,reduction of exposures (Cmax and AUC),"[3]; when administered with low-fat meal, 60 mg",~60%
"Cl.N#Cc1cccc(-c2ccc3ncc(-c4cc(F)cc(F)c4)c(N4CCC(N)CC4)c3c2)c1O [Compound A-HCl, 3-[4-(4-amino-piperidin-1-yl)-3-(3,5-difluoro-phenyl)-quinolin-6-yl]-2-hydroxy-benzonitrile monohydrochloride]",steady state IGF-1 change vs baseline (last LA-SRL injection),"[2]; 10 and 20 mg per day, acromegaly patients previously treated with LA-SRLs",above baseline
same,steady state IGF-1 change from baseline (last LA-SRL injection),"[2]; 30/day and 40 mg/day, acromegaly patients previously treated with LA-SRLs",near zero
same,tolerability,[4],well tolerated
C[C@@H](O)[C@@H]1NC(=O)[C@H](CCCCN)NC(=O)[C@@H](Cc2c[nH]c3ccccc23)NC(=O)[C@H](Cc2ccccc2)NC(=O)[C@@H](NC(=O)[C@H](N)Cc2ccccc2)CSSC[C@@H](C(=O)N[C@H](CO)[C@@H](C)O)NC1=O [octreotide],patients with carcinoid syndrome who respond,carcinoid syndrome,80%
